# Active and inactive are the calls of the source. No cut-off for these calls is given here.
# How the values were obtained:
# [1] = tested on: Triticum aestivum; assay: Phytotoxicity in Triticum aestivum (wheat) assessed as injury at 10 g/ha pre emergence application measured after 21 days after treatment; format: organism-based; conditions: in vivo, other, 504 h
# [2] = tested on: Triticum aestivum; assay: Phytotoxicity in Triticum aestivum (wheat) assessed as injury at 3 g/ha post emergence application measured after 21 days after treatment; format: organism-based; conditions: in vivo, other, 504 h
# [3] = tested on: Triticum aestivum; assay: Phytotoxicity in Triticum aestivum (wheat) assessed as injury at 0.3 g/ha post emergence application measured after 21 days after treatment; format: organism-based; conditions: in vivo, other, 504 h
# [4] = tested on: Alopecurus myosuroides; assay: Herbicidal activity against Alopecurus myosuroides assessed as killing at 300 g/ha post emergence application measured after 21 days after treatment; format: functional
# [5] = tested on: Alopecurus myosuroides; assay: Herbicidal activity against Alopecurus myosuroides assessed as killing at 10 g/ha pre emergence application measured after 21 days after treatment; format: functional, organism-based
# [6] = tested on: Alopecurus myosuroides; assay: Herbicidal activity against Alopecurus myosuroides assessed as killing at 3 g/ha post emergence application measured after 21 days after treatment; format: functional
# [7] = tested on: Alopecurus myosuroides; assay: Herbicidal activity against Alopecurus myosuroides assessed as killing at 1 g/ha post emergence application measured after 21 days after treatment; format: functional, organism-based
# [8] = molecular target: T1, Protoporphyrinogen oxidase 2 (Spinacia oleracea) (UniProt Q94IG7); assay: Inhibition of Stellaria media protoporphyrinogen oxidase by post-emergence herbicidal activity assay
# T1 sequence (whole entry): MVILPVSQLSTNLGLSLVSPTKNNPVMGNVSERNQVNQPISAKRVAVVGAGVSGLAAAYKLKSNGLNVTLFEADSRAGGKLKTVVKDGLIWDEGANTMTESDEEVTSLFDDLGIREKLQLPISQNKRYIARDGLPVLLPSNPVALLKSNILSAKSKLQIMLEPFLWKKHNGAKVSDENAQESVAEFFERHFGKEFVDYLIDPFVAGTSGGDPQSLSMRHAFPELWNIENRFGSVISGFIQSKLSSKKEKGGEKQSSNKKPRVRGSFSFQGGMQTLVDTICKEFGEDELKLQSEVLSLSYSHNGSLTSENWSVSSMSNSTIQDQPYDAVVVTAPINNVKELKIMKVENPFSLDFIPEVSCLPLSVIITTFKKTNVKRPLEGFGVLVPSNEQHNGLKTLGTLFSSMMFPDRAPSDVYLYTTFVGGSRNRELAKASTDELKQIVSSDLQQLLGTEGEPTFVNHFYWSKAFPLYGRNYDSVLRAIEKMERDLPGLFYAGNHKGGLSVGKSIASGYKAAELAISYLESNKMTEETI
# [9] = molecular target: T2, Protoporphyrinogen IX oxidase (Cichorium intybus) (UniProt Q9SPL6); assay: Inhibition of Tripleurospermum maritimum subsp. inodorum protoporphyrinogen oxidase by post-emergence herbicidal activity assay
# T2 sequence (whole entry): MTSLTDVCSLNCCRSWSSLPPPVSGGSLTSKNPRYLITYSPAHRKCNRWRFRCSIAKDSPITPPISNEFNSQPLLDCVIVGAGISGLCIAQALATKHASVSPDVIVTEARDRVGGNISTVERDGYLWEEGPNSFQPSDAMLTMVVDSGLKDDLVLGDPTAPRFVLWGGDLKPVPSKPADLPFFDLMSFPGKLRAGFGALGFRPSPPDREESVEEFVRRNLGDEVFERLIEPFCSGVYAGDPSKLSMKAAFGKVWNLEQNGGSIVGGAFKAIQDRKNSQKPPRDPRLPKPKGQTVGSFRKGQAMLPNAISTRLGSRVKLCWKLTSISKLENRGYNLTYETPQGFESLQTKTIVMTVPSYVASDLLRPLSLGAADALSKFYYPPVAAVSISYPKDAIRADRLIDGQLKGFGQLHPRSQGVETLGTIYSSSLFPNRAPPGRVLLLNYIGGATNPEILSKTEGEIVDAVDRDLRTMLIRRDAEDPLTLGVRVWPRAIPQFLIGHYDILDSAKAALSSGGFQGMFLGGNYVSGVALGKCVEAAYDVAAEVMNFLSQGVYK
# [10] = molecular target: T3, Protoporphyrinogen oxidase, chloroplastic (Nicotiana tabacum) (UniProt O24163); assay: Inhibition of Galium aparine protoporphyrinogen oxidase by post-emergence herbicidal activity assay
# T3 sequence (whole entry): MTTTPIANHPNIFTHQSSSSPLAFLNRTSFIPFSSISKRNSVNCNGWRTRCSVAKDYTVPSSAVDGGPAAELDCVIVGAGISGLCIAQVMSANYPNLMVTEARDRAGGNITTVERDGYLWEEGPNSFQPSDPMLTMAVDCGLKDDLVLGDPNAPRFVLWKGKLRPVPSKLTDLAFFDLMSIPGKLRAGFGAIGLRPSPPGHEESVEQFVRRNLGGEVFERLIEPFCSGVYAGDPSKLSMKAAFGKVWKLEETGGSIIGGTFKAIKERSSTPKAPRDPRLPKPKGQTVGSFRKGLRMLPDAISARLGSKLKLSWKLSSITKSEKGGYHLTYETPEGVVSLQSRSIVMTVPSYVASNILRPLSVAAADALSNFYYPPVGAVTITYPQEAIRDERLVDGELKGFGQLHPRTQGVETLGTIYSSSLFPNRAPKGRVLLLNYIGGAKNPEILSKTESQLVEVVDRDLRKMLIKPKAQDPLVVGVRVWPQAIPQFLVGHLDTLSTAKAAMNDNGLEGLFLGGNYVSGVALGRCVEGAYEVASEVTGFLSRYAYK
# [11] = tested on: Veronica hederifolia; assay: Herbicidal activity against Veronica hederaefolia assessed as killing at 10 g/ha pre emergence application measured after 21 days after treatment; format: functional
# [12] = tested on: Veronica hederifolia; assay: Herbicidal activity against Veronica hederaefolia assessed as killing at 3 g/ha post emergence application measured after 21 days after treatment; format: functional
# [13] = tested on: Viola arvensis; assay: Herbicidal activity against Viola arvensis assessed as killing at 10 g/ha pre emergence application measured after 21 days after treatment; format: functional
# [14] = tested on: Stellaria media; assay: Herbicidal activity against Stellaria media assessed as killing at 10 g/ha pre emergence application measured after 21 days after treatment; format: functional
# [15] = tested on: Stellaria media; assay: Herbicidal activity against Stellaria media assessed as killing at 3 g/ha post emergence application measured after 21 days after treatment; format: functional
# [16] = tested on: Galium aparine; assay: Herbicidal activity against Galium aparine assessed as killing at 100 g/ha post emergence application measured after 21 days after treatment; format: functional
# [17] = tested on: Galium aparine; assay: Herbicidal activity against Galium aparine assessed as killing at 30 g/ha post emergence application measured after 21 days after treatment; format: functional
# [18] = tested on: Galium aparine; assay: Herbicidal activity against Galium aparine assessed as killing at 10 g/ha post emergence application measured after 21 days after treatment; format: functional
# [19] = tested on: Galium aparine; assay: Herbicidal activity against Galium aparine assessed as killing at 3 g/ha post emergence application measured after 21 days after treatment; format: functional
# [20] = tested on: Avena fatua; assay: Herbicidal activity against Avena fatua assessed as killing at 30 g/ha post emergence application measured after 21 days after treatment; format: functional, organism-based
# [21] = tested on: Avena fatua; assay: Herbicidal activity against Avena fatua assessed as killing at 10 g/ha pre emergence application measured after 21 days after treatment; format: functional, organism-based
# [22] = tested on: Hordeum vulgare; assay: Phytotoxicity in Hordeum vulgare (barley) assessed as injury at 30 g/ha pre emergence application measured after 21 days after treatment; format: organism-based; conditions: in vivo, other, 504 h
# [23] = tested on: Hordeum vulgare; assay: Phytotoxicity in Hordeum vulgare (barley) assessed as injury at 0.3 g/ha post emergence application measured after 21 days after treatment; format: organism-based; conditions: in vivo, other, 504 h
# [24] = tested on: Triticum aestivum; assay: Phytotoxicity in Triticum aestivum (wheat) assessed as injury at 300 g/ha pre emergence application measured after 21 days after treatment; format: organism-based; conditions: in vivo, other, 504 h
structure (smiles),measurement,setting,value
CCOC(=O)COc1cc(-c2nn(C)c(OC(F)F)c2Cl)c(F)cc1Cl [PYRAFLUFEN-ETHYL],Activity,[1],Non-toxic
same,Activity,[2],1%
same,Activity,[3],Non-toxic
same,Activity,[4],1%
same,Activity,[5],inactive
same,Activity,[6],1%
same,Activity,[7],inactive
same,ED90,[8],0.3 gAi/ha
same,ED90,[9],0.3 gAi/ha
same,ED90,[10],1.5 gAi/ha
same,Activity,[11],1%
same,Activity,[12],100%
same,Activity,[13],11%
same,Activity,[14],21%
same,Activity,[15],100%
same,Activity,[16],40%
same,Activity,[17],21%
same,Activity,[18],100%
same,Activity,[19],100%
same,Activity,[20],inactive
same,Activity,[21],inactive
same,Activity,[22],Non-toxic
same,Activity,[23],Non-toxic
same,Activity,[24],11%

# Source: ChEMBL document CHEMBL3044865, “Herbicidal Activity and Characteristics of Pyraflufen-ethyl for Controlling Broad-leaved Weeds in Cereals” (J Pestic Sci, 2002)
